Results published in BigSolDB 2.1.

COc1ccc2nc(S(=O)Cc3ncc(C)c(OC)c3C)[nH]c2c1 (stereo unspecified)
solubility (mole fraction)
Conditions	in THF	in acetone	in acetonitrile	in ethanol	in ethyl acetate	in methanol	in n-butanol	in water
278.15 K	0.00458	0.00146	0.00118	0.00157	0.000981	0.00206	0.00128	4.07e-05
283.15 K	0.00644	0.00173	0.00143	0.00187	0.00112	0.00264	0.00153	5e-05
288.15 K	0.00843	0.00215	0.00182	0.00224	0.00134	0.00348	0.00196	6.15e-05
293.15 K	0.0113	0.00265	0.00222	0.00261	0.00156	0.00435	0.0024	7.64e-05
298.15 K	0.0146	0.00313	0.00273	0.00347	0.00185	0.00569	0.00303	9.36e-05
303.15 K	0.0196	0.00377	0.00354	0.00413	0.0022	0.00686	0.0037	0.000115
308.15 K	0.0259	0.00464	0.00429	0.00509	0.00253	0.00857	0.00455	0.000138
313.15 K	0.0327	0.00541	0.00513	0.00605	0.00293	0.0106	0.0054	0.000165
318.15 K	0.0425	0.00637	0.00607	0.00702	0.00343	0.0129	0.0065	0.000196
323.15 K	0.0545	0.00739	0.00711	0.00832	0.00405	0.0156	0.00779	0.00023
328.15 K	0.0663	0.0085	0.00843	0.00982	0.0047	0.0186	0.00884	0.000263
333.15 K	0.0789	0.00982	0.00978	0.0113	0.00523	0.0216	0.0103	0.000299
